# Laboratory results from patent publication US11484608B2, “Non-invasive assessment of hepatic mitochondrial metabolism by positional isotopomer NMR tracer analysis (PINTA)” (YALE UNIVERSITY, priority 2017, dated 2022).
# Columns and labels:
# [1] = tested on: primary hepatocytes (cytosolic and mitochondrial calcium); assay: Ca2+ imaging in isolated hepatocytes; assay type: cell-based, mouse; conditions: isolated WT hepatocytes (not InsP3R-I KO); 100 nM glucagon or 50 nM vasopressin
# Procedure: Primary hepatocytes were isolated by the Yale Liver Center from wild-type and InsP3R-I KO mice and plated on glass coverslips coated with Rat Collagen Type I. Cells were loaded with the ratiometric cytosolic Ca^2+ indicator dye, Fura-2 AM (Thermo Fisher Scientific), or the mitochondrial matrix-targeted Ca^2+ indicator, Rhod-2 AM (Thermo Fisher Scientific) according to manufacturer's instructions. Ca^2+ imaging experiments were performed in 4-(2-hydroxyethyl)-1-piperazine ethanesulfonic acid (HEPES)-buffered balanced salt solution (25 mM HEPES, 121 mM NaCl, 4.7 mM KCl, 1.2 mM MgSO4, 1.2 mM KPO4, 5 mM NaHCO3, 2.0 mM CaCl2, 10 mM Glucose, pH 7.4) with or without the PKA inhibitor H-89 (25 μM) two to five hr following initial plating. Coverslips were transferred to a custom-built perfusion chamber on the stage of an inverted microscope connected to a RedShirtImaging camera (Olympus Life Science, Waltham, Mass.). […] For cytoplasmic calcium readings, changes in fluorescence (F, λ=340) were normalized by the initial fluorescence (F0, λ=380) and were expressed as F/F0. […] Individual cell responses were normalized to their respective baseline Rhod-2 AM fluorescence values, and changes were expressed as Normalized Δ Fluorescence.
# [2] = tested on: hepatic mitochondrial fluxes (VPC, VCS); assay: PINTA / ex vivo NMR tracer study in rats infused with [3-^13C]lactate and [3-^3H]glucose (Example 1); conditions: 120 min [3-^13C]lactate infusion, mean ± S.E.M.
# Description: Male Sprague-Dawley rats (˜10 weeks of age) were ordered from Charles River (Wilmington, Mass.) at ˜300 g and fed regular chow unless otherwise specified. […] Prior to studies, rats underwent surgery under general isoflurane anesthesia to place polyethylene catheters in the jugular vein and common carotid artery (PE90 and PE50 tubing, respectively; Instech, Plymouth Meeting, Pa.). After 1 week, recovery was verified by confirming that the rats had regained their surgical weight. Unless otherwise specified, all experiments were performed following an overnight fast (16 hrs food withdrawal prior to sacrifice). In both the rodent and human studies, data are represented as the mean of two technical replicates for each subject (i.e. two technical replicates per biological replicate). Sample sizes were selected to give power to detect moderate to large differences between groups (n=5-6 per group), and all animals were included in the final analysis.
# The investigator performing the animal studies was not blinded for practical reasons, but the investigators analyzing fluxes were blinded as to the group allocation.
# The flux calculations required the following equations using [^13C] glucose positional enrichment in plasma or liver, determined by NMR and GC/MS mass spectrometry. VPC is the rate of pyruvate carboxylase flux as determined from the anaplerotic flow into oxaloacetate (OAA). VCS is defined as the flux of the citrate synthase reaction in the citric acid cycle. […] G2 denotes [m+2] glucose arising from the condensation of two singly-labeled trioses.
# GC/MS was used to measure m+1 and m+2 [^13C]glucose enrichment. The total m+1 and m+2 [^13C]glucose enrichment was measured using a pentaacetate derivative: plasma or liver samples were deproteinized using 5 volumes of methanol, dried, and derivatized with 75 μL of 1:1 acetic anhydride:pyridine. After heating to 65° C. for 20 min, the reaction was terminated by adding 25 μL methanol, and m+1 and m+2 (as well as m+3 . . . m+6) were determined by GC/MS (CI mode, m/z 331 [m], 332 [m+1], 333 [m+2], . . . 337 [m+6]). The m+1 and m+2 [^13C] enrichments of the glucose C4C5C6 fragment were determined by generating the aldonitrile pentapropionate derivative: plasma or NMR liver extract samples were dried under N2 gas, and 50 μl hydroxylamine hydrochloride (20 mg/ml in pyridine) were added. The samples were heated at 90° C. for 60 min, then 100 μl propionic anhydride was added, after which the samples were heated at 60° C. for 30 min. Finally, the samples were evaporated under N2 gas, resuspended in ethyl acetate, and the m+1 and m+2 enrichment of the glucose C4C5C6 fragment was measured by GC/MS.
# [^13C]alanine enrichment was measured by GC/MS. [^13C] NMR spectroscopy using the BRUKER TOPSPIN® system was utilized to measure relative positional 13C-enrichment of glucose, and combined with the total [^13C]glucose enrichment ([m+1]+2*[m+2]) measured by GC/MS to calculate the positional enrichment of [13C]glucose.
# Total [^13C]glutamate enrichment was determined by LC-MS/MS. Approximately 100 mg of liver tissue was weighed out and homogenized in 500 μl ice-cold methanol using a TissueLyser, then centrifuged at 4000 rpm for 10 minutes. The supernatant was then purified by centrifugation (4000 rpm, 10 min) through the PALL NANOSEP® filter (100K) (Port Washington, N.Y.). Glutamate 13C enrichment ([m+1], [m+2]) was then assessed by LC-MS/MS using an AB SCIEX QTRAP 6500 (Framingham, Mass.), equipped with a SHIMADZU ultra-fast liquid chromatography (UFLC) system (Columbia, Md.) and electrospray ionization (ESI) source with negative-ion detection. The measured ion pairs were 146/128 (m0), 147/129 (m+1), and 148/130 (m+2).
# Positional enrichment of glucose, glutamate, and alanine was measured by 13C NMR.
substance,measurement,setting,value
glucagon,mitochondrial and cytosolic calcium signaling,[1],increases
same,VPDH/VCS (%),[2]; rat liver,2.7 ± 0.1%
same,VPK+ME/VPC+PDH (%),[2]; rat liver,<2%
same,VPC/VEGP (%),[2]; rats,65 ± 3%
